Results taken from article PMC11078216, “Discovery of potent and selective activity-based probes (ABPs) for the deubiquitinating enzyme USP30” (RSC Chemical Biology, 2024).

target: T1, USP30 (Homo sapiens, UniProt Q70CQ3); assay: USP30 biochemical IC50 fluorescence polarisation assay using Ub-Lys(TAMRA)-Gly; settings: 30 min incubation, USP30 5 nM, Ub-Lys(TAMRA)-Gly 100 nM; read-out: IC50 against USP30
T1 construct: Catalog #E-582 residues 57-517; purchased E-582
T1 sequence (Q70CQ3 57-517): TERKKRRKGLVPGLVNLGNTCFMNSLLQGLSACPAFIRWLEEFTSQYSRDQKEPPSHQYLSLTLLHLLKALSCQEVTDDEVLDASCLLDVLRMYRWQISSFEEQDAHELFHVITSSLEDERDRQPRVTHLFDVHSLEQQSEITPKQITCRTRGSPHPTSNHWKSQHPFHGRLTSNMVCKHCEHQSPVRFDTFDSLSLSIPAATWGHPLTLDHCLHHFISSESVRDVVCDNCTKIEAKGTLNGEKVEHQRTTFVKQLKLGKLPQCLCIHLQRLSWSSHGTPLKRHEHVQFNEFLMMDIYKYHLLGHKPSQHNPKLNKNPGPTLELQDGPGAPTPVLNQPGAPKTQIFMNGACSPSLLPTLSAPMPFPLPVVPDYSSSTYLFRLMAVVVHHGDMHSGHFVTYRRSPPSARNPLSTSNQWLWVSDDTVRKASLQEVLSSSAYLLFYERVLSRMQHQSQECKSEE
Method: We first confirmed biochemical inhibition of USP30 with our probes in a fluorescence polarisation (FP) assay using a TAMRA labelled Lys-Gly dipeptide linked to ubiquitin via an isopeptide bond (Ub-Lys(TAMRA)-Gly). USP30 (5 nM) was incubated across a concentration series of test compound for 30 min, followed by FP measurement after addition of Ub-Lys(TAMRA)-Gly (100 nM).
4. Biochemical and biological methods and proteomics
1) Biochemical USP30 fluorescence polarisation (FP) assay using Ub-Lys(TAMRA)-Gly a. USP30 biochemical IC50 assay
Reactions were performed in triplicate in black 384 well plates (Greiner #784076) in a final reaction volume of 21 μL. Compound dilutions were prepared at 21× final concentration (2000 nM for a final concentration of 100 nM) in 50% DMSO/water. USP30 was diluted in reaction buffer A (40 mM Tris, pH 7.5, 0.005% Tween 20, 0.5 mg/ml BSA, 5 mM betamercaptoethanol) and 10 μL of diluted 10.5 nM USP30 was added to the compound (final concentration 5 nM). Enzyme and compound were incubated for 30 min at room temperature. Reactions were initiated by the addition of 10 ul 200 nM (final concentration 100 nM) of TAMRA labeled peptide linked to ubiquitin via an iso-peptide bond (Ub-Lys(TAMRA)-Gly, UbiQ-012). Reactions were read immediately after substrate addition using a Pherastar Plus (BMG Labtech; λEx 531 nm, λEm 579 nm). IC50 values were determined by plotting percentage USP30 activity against compound concentration and fitting a four -parameter dose-response curve (Graphpad Prism 5.03). […]
Kinetic progress curves were fitted to equation y = (vi/kobs) (1 − exp(−kobs*x)) to determine the kobs value (for first 30 min data). The kobs value was then plotted against the inhibitor concentration to […]

Structure (SMILES) | IC50
N#CN1CC[C@@H](NC(=O)c2cc(-c3ccccc3Oc3ccc(N=[N+]=[N-])cc3)n[nH]2)C1 [IMP-2586] | 16.3 nM
C#Cc1cccc(-c2cc(NC(=O)CC3CCN(C#N)C3)on2)c1 (stereo not shown) [IMP-2587] | 12.6 nM
N#CN1CC[C@H](CC(=O)Nc2cc(-c3cccc(Cl)c3)no2)C1 [compound 1, reference compound] | 18.3 nM
N#CN1CC[C@@H](NC(=O)c2cc(-c3ccccc3Oc3ccccc3)n[nH]2)C1 [compound 3, reference compound] | 4.8 nM
